Experimental data from ChEMBL document CHEMBL1133840, “Enols as potent antibacterial agents” (2001).
Values after ≈ are worked out from the molar mass of the structure shown.

Key:
Type in all cases: functional
[1] = test system: Enterococcus faecalis; test: Evaluated for its antibacterial activity against Enterococcus faecalis UC 9217
[2] = test system: Escherichia coli; test: Evaluated for its antibacterial activity against Escherichia coli UC 6674
[3] = test system: Haemophilus influenzae; test: Evaluated for its antibacterial activity against Haemophilus influenzae 30063
[4] = test system: Klebsiella pneumoniae; test: Evaluated for its antibacterial activity against Klebsiella pneumoniae UC 12081
[5] = test system: Pseudomonas aeruginosa; test: Evaluated for its antibacterial activity against Pseudomonas aeruginosa UC 6676
[6] = test system: Staphylococcus aureus; test: Antibacterial activity against Staphylococcus aureus UC 9218 in the presence of 0% serum
[7] = test system: Staphylococcus epidermidis; test: Evaluated for its antibacterial activity against Staphylococcus epidermidis UC 12084
[8] = test system: Staphylococcus aureus; test: Evaluated for its antibacterial activity against Staphylococcus aureus UC 9218
[9] = test system: Streptococcus pneumoniae; test: Evaluated for its antibacterial activity against Streptococcus pneumoniae UC 9912
[10] = test system: Staphylococcus aureus; test: Antibacterial activity against Staphylococcus aureus UC 9218 in the presence of 10% serum
[11] = test system: Staphylococcus aureus; test: Antibacterial activity against Staphylococcus aureus UC 9218 in the presence of 5% serum

With `FC(F)(F)c1cccc(CNc2cccc3ccccc23)c1` the MIC [1] was 2 µg/mL (≈ 6.64 µM), the MIC [2] was greater than 128 µg/mL and the MIC [3] was 32 µg/mL (≈ 106 µM). For the same compound, the MIC [4] was greater than 128 µg/mL, the MIC [5] was greater than 128 µg/mL and the MIC [6] was 2 µg/mL. It also gave an MIC [7] of 4 µg/mL (≈ 13.3 µM), an MIC [8] of 2 µg/mL (≈ 6.64 µM) and an MIC [9] of 8 µg/mL (≈ 26.6 µM).
`FC(F)(F)c1cccc(CCNc2ccc3ccccc3c2)c1` gave an MIC [1] greater than 1 µg/mL, an MIC [2] greater than 128 µg/mL and an MIC [3] of 4 µg/mL (≈ 12.7 µM). It also gave an MIC [4] greater than 128 µg/mL, an MIC [5] greater than 128 µg/mL and an MIC [6] of 4 µg/mL. For the same compound, the MIC [10] was 64 µg/mL, the MIC [11] was 32 µg/mL and the MIC [7] was 2 µg/mL (≈ 6.34 µM). It also gave an MIC [8] of 4 µg/mL (≈ 12.7 µM) and an MIC [9] of 2 µg/mL (≈ 6.34 µM).
`N#CCC(=O)N(CCc1cccc(C(F)(F)F)c1)c1cccc2ccccc12` was tested, and the MIC [1] was greater than 128 µg/mL, the MIC [2] was greater than 128 µg/mL and the MIC [3] was greater than 128 µg/mL. For the same compound, the MIC [4] was greater than 128 µg/mL, the MIC [5] was greater than 128 µg/mL and the MIC [7] was greater than 128 µg/mL. It also gave an MIC [8] greater than 128 µg/mL and an MIC [9] of 16 µg/mL (≈ 41.8 µM).
Compound `Cc1ccccc1NCCc1cccc(C(F)(F)F)c1` has an MIC [1] of 2 µg/mL (≈ 7.16 µM), an MIC [2] greater than 128 µg/mL and an MIC [3] of 4 µg/mL (≈ 14.3 µM). The MIC [4] was greater than 128 µg/mL, the MIC [5] was greater than 128 µg/mL and the MIC [6] was 4 µg/mL. It also gave an MIC [10] of 32 µg/mL, an MIC [11] of 16 µg/mL and an MIC [7] of 2 µg/mL (≈ 7.16 µM). It also gave an MIC [8] of 4 µg/mL (≈ 14.3 µM) and an MIC [9] of 1 µg/mL (≈ 3.58 µM).
Work on `CC(=O)C(C#N)C(=O)N(CCc1cccc(C(F)(F)F)c1)c1cccc2ccccc12` (stereo not drawn) yielded an MIC [1] of 4 µg/mL (≈ 9.42 µM), an MIC [2] greater than 128 µg/mL and an MIC [3] greater than 128 µg/mL. It also gave an MIC [4] greater than 128 µg/mL, an MIC [5] greater than 128 µg/mL and an MIC [6] of 8 µg/mL. For the same compound, the MIC [10] was 128 µg/mL, the MIC [11] was 128 µg/mL and the MIC [7] was 4 µg/mL (≈ 9.42 µM). It also gave an MIC [8] of 8 µg/mL (≈ 18.8 µM) and an MIC [9] of 2 µg/mL (≈ 4.71 µM).
Work on `CSCC(=O)N(CCc1cccc(C(F)(F)F)c1)c1cccc2ccccc12` yielded an MIC [1] greater than 128 µg/mL, an MIC [2] greater than 128 µg/mL and an MIC [3] greater than 128 µg/mL. The MIC [4] was greater than 128 µg/mL, the MIC [5] was greater than 128 µg/mL and the MIC [7] was greater than 128 µg/mL. It also gave an MIC [8] greater than 128 µg/mL and an MIC [9] greater than 128 µg/mL.
`CN[C@H](CC(C)C)C(=O)N[C@H]1C(=O)N[C@@H](CC(N)=O)C(=O)N[C@H]2C(=O)N[C@H]3C(=O)N[C@H](C(=O)N[C@H](C(=O)O)c4cc(O)cc(O)c4-c4cc3ccc4O)[C@H](O)c3ccc(c(Cl)c3)Oc3cc2cc(c3O[C@@H]2O[C@H](CO)[C@@H](O)[C@H](O)[C@H]2O[C@H]2C[C@](C)(N)[C@H](O)[C@H](C)O2)Oc2ccc(cc2Cl)[C@H]1O` [VANCOMYCIN] showed an MIC [1] of 1 µg/mL (≈ 0.69 µM) and an MIC [9] of 0.25 µg/mL (≈ 0.173 µM).
In the case of `CCc1cccc2ccccc12`, the MIC [1] is reported as 128 µg/mL (≈ 819 µM), the MIC [2] is reported as greater than 128 µg/mL and the MIC [3] is reported as greater than 128 µg/mL. For the same compound, the MIC [4] was greater than 128 µg/mL, the MIC [5] was greater than 128 µg/mL and the MIC [6] was 128 µg/mL. The MIC [10] was greater than 128 µg/mL, the MIC [11] was greater than 128 µg/mL and the MIC [7] was 128 µg/mL (≈ 819 µM). The MIC [8] was 128 µg/mL (≈ 819 µM) and the MIC [9] was 32 µg/mL (≈ 205 µM).
For `c1ccc(-c2ccc(CCNc3cccc4ccccc34)cc2)cc1`, the MIC [1] was 2 µg/mL (≈ 6.18 µM), the MIC [2] was greater than 128 µg/mL and the MIC [3] was 64 µg/mL (≈ 198 µM). It also gave an MIC [4] greater than 128 µg/mL, an MIC [5] greater than 128 µg/mL and an MIC [6] of 8 µg/mL. For the same compound, the MIC [10] was 128 µg/mL, the MIC [11] was 64 µg/mL and the MIC [7] was 8 µg/mL (≈ 24.7 µM). The MIC [8] was 8 µg/mL (≈ 24.7 µM) and the MIC [9] was 16 µg/mL (≈ 49.5 µM).
Compound `Clc1ccc(CCNc2cccc3ccccc23)c(Cl)c1` has an MIC [1] of 1 µg/mL (≈ 3.16 µM), an MIC [2] greater than 128 µg/mL and an MIC [3] of 1 µg/mL (≈ 3.16 µM). It also gave an MIC [4] greater than 128 µg/mL, an MIC [5] greater than 128 µg/mL and an MIC [6] of 2 µg/mL. The MIC [10] was 64 µg/mL, the MIC [11] was 16 µg/mL and the MIC [7] was 1 µg/mL (≈ 3.16 µM). It also gave an MIC [8] of 2 µg/mL (≈ 6.32 µM) and an MIC [9] of 2 µg/mL (≈ 6.32 µM).
For `O=C(CC(=O)C(F)(F)F)N(CCc1cccc(C(F)(F)F)c1)c1cccc2ccccc12`, the MIC [1] was 4 µg/mL (≈ 8.82 µM), the MIC [2] was greater than 128 µg/mL and the MIC [3] was 8 µg/mL (≈ 17.6 µM). The MIC [4] was greater than 128 µg/mL, the MIC [5] was greater than 128 µg/mL and the MIC [6] was 2 µg/mL. It also gave an MIC [10] of 64 µg/mL, an MIC [11] of 16 µg/mL and an MIC [7] of 2 µg/mL (≈ 4.41 µM). For the same compound, the MIC [8] was 2 µg/mL (≈ 4.41 µM) and the MIC [9] was 8 µg/mL (≈ 17.6 µM).
Compound `CC(=O)CC(=O)N(CCc1cccc(C(F)(F)F)c1)c1cccc2ccccc12` has an MIC [1] greater than 128 µg/mL, an MIC [2] greater than 128 µg/mL and an MIC [3] greater than 128 µg/mL. It also gave an MIC [4] greater than 128 µg/mL, an MIC [5] greater than 128 µg/mL and an MIC [7] greater than 128 µg/mL. The MIC [8] was greater than 128 µg/mL and the MIC [9] was 32 µg/mL (≈ 80.1 µM).
In the case of `COc1ccc(OC)c(CCNc2cccc3ccccc23)c1`, the MIC [1] is reported as 16 µg/mL (≈ 52.1 µM), the MIC [2] is reported as greater than 128 µg/mL and the MIC [3] is reported as 32 µg/mL (≈ 104 µM). For the same compound, the MIC [4] was greater than 128 µg/mL, the MIC [5] was greater than 128 µg/mL and the MIC [6] was 16 µg/mL. It also gave an MIC [10] of 128 µg/mL, an MIC [11] of 32 µg/mL and an MIC [7] of 16 µg/mL (≈ 52.1 µM). It also gave an MIC [8] of 16 µg/mL (≈ 52.1 µM) and an MIC [9] of 16 µg/mL (≈ 52.1 µM).
In the case of `C[S+]([O-])CC(=O)N(CCc1cccc(C(F)(F)F)c1)c1cccc2ccccc12` (stereo not drawn), the MIC [1] is reported as greater than 128 µg/mL, the MIC [2] is reported as greater than 128 µg/mL and the MIC [3] is reported as greater than 128 µg/mL. The MIC [4] was greater than 128 µg/mL, the MIC [5] was greater than 128 µg/mL and the MIC [7] was 128 µg/mL (≈ 305 µM). The MIC [8] was 128 µg/mL (≈ 305 µM) and the MIC [9] was 64 µg/mL (≈ 153 µM).
For `CO/N=C(\C(=O)N[C@@H]1C(=O)N2C(C(=O)O)=C(COC(C)=O)CS[C@H]12)c1csc(N)n1` [CEFOTAXIME], the MIC [2] was 0.06 µg/mL (≈ 0.132 µM), the MIC [3] was 0.015 µg/mL (≈ 0.0329 µM) and the MIC [4] was 0.06 µg/mL (≈ 0.132 µM). For the same compound, the MIC [5] was 16 µg/mL (≈ 35.1 µM).
For `O=C(CO)N(CCc1cccc(C(F)(F)F)c1)c1cccc2ccccc12`, the MIC [1] was greater than 128 µg/mL, the MIC [2] was greater than 128 µg/mL and the MIC [3] was greater than 128 µg/mL. The MIC [4] was greater than 128 µg/mL, the MIC [5] was greater than 128 µg/mL and the MIC [7] was greater than 128 µg/mL. The MIC [8] was 32 µg/mL (≈ 85.7 µM) and the MIC [9] was 32 µg/mL (≈ 85.7 µM).
